Test results reported in patent US11363819B2 (priority 2017, dated 2022).
Like-named read-outs stand apart in the source and are kept apart here.

Experiments:
soybean [1] = details: Magnesium chlorate 1600, Aciflurofen 96, combination 1600 + 96 gla/Ha
soybean [2] = assay type: in vivo; details: Magnesium chlorate 2000, Glufosinate ammonium 300, combination 2000 + 300 gla/Ha
Method: (§1) The expected efficacy of a combination of magnesium chlorate and co-herbicide was calculated using the well-established Colby method.
(§2) In the Colby method, the expected (or predicted) response of a combination of herbicides is calculated by taking the product of the observed response for each individual component of the combination when applied alone divided by 100 and subtracting this value from the sum of the observed response for each component when applied alone. An unexpected enhancement in efficacy of the combination is then determined by comparing the observed response of the combination to the expected (or predicted) response as calculated from the observed response of each individual component alone. If the observed response of the combination is greater than the expected (or predicted) response, or stated conversely, if the difference between the observed and expected response is greater than zero, then the combination is said to be synergistic or unexpectedly effective. (Colby, S. R., Weeds, 1967 (15), p. 20-22) The Colby method requires only a single dose of each herbicide applied alone and the mixture of both doses.
(§3) The present inventors have adopted the Coby method to calculate synergy of the combination of defoliants. The % defoliation of individual defoliants was calculated and compared to the expected and observed defoliation efficacy.
(§4) The defoliation activity of the individual defoliants of the invention and their combinations were evaluated on multiple crops including wheat, soybean and cotton. The trial was carried out in Randomized Complete Block (RCB) method, all field trials were conducted using this method. Each trial were replicated four times and conducted under GEP guidelines. Application volumes were varied for each mixture. Such field trials were carried out at various locations so as to generate independent data, the locations were chosen randomly across Brazil.
Field trials were carried out to test the synergy of the combination magnesium chlorate and glufosinate-ammonium which is a ESPS inhibitor herbicide for desiccation in Soybean. The field trials were carried out at various locations in Brazil during spring. The percentage efficacy was calculated after 1, 4 and 7 days of applications. The target crop for defoliation was soybean and the results are recorded in the table below: […]

Triticum aesti = assay type: in vivo, wheat; details: Magnesium chlorate 3000, Glufosinate ammonium 1500, combination 3000 + 1500 mL/Ha
Method: as §1
as §2, with “(Colby, S. R., Weeds, 1967 (15), p. 20-22) The Colby method requires only a single dose of each herbicide applied alone and the mixture of both doses.” left out
as §3
The defoliation activity of the individual defoliants of the invention and their combinations were evaluated on multiple crops including wheat, soybean and cotton. […]

Conyza Canadenesis = assay type: in vivo
Method: as §1, §2, §4
Field trials were carried out to test the synergy of the combination magnesium chlorate and glufosinate-ammonium which is a […] herbicides for controlling Conyza Canadenesis. The field trials were carried out at various locations in Brazil. The percentage efficacy was calculated after 3, 14 and 28 days of applications.

soybean [3] = assay type: in vivo; details: Magnesium chlorate 1600, Glufosinate ammonium 240, combination 1600 + 240 mL/Ha
Method: as §1, §2, §3, §4
Field trials were carried out to test the synergy of the combination magnesium chlorate and glufosinate-ammonium which is a ESPS inhibitor herbicide for desiccation in Soybean. The field trials were carried out at various locations in Brazil during spring. The percentage efficacy was calculated after 1 and 4 days of applications. The target crop for defoliation was soybean and the results are recorded in the table below: […]

soybean [4] = details: Magnesium chlorate 1600, Aciflurofen 96, combination 1600 + 96 gla/Ha; remark: listed apart in the source
Method: Field trials were carried out to test the synergy of the combination magnesium chlorate and glufosinate-ammonium which is a protoporphyrinogen oxidase-inhibiting herbicides for desiccation in Soybean. The field trials were carried out at various locations in Brazil during spring. The percentage efficacy was calculated after 1, 4 and 7 days of applications.

[5] = Magnesium chlorate 1200, Aciflurofen 72, combination 1200 + 72 gla/Ha
[6] = Magnesium chlorate 1600, Aciflurofen 96, combination 1600 + 96 gla/Ha
[7] = Magnesium chlorate 2000, Aciflurofen 120, combination 2000 + 120 gla/Ha
[8] = Magnesium chlorate 1200, Glufosinate 180, combination 1200 + 180 gla/Ha
[9] = Magnesium chlorate 1600, Glufosinate 240, combination 1600 + 240 gla/Ha
[10] = Magnesium chlorate 2000, Glufosinate 300, WG formulation 1600 + 300 gla/Ha

Method for Cenchrus echinatus: Field trials were carried out to test the synergy of the combination magnesium chlorate and acifluorfen for controlling Cenchrus echinatus. The field trials were carried out at various locations in Brazil. The percentage efficacy was calculated after 3, 14 and 21 days of applications.
Method for Digitaria insularis: Field trials were carried out to test the synergy of the combination magnesium chlorate and acifluorfen for controlling Digitaria insularis. The field trials were carried out at various locations in Brazil. The percentage efficacy was calculated after 3, 14 and 28 days of applications.
Method for Euphorbia heterophylla: Field trials were carried out to test the synergy of the combination magnesium chlorate and acifluorfen for controlling Euphorbia heterophylla. The field trials were carried out at various locations in Brazil. The percentage efficacy was calculated after 3, 14 and 28 days of applications.

Compound: [Mg+2].[O-][Cl+2]([O-])[O-].[O-][Cl+2]([O-])[O-] [Magnesium chlorate]
- % control at 3 DAA Actual (Digitaria insularis; [5]): 6%
- % control at 3 DAA Actual (Digitaria insularis; [6]): 6%
- % control at 3 DAA Actual (Digitaria insularis; [7]): 7%
- % control at 14 DAA Actual (Digitaria insularis; [5]): 9.3%
- % control at 14 DAA Actual (Digitaria insularis; [6]): 11.7%
- % control at 14 DAA Actual (Digitaria insularis; [7]): 16%
- % control at 28 DAA Actual (Digitaria insularis; [5]): 41.7%
- % control at 28 DAA Actual (Digitaria insularis; [6]): 48.3%
- % control at 28 DAA Actual (Digitaria insularis; [7]): 31.7%
- % control at 3 DAA Actual (Cenchrus echinatus; [5]): 10.7%
- % control at 3 DAA Actual (Cenchrus echinatus; [6]): 11.3%
- % control at 3 DAA Actual (Cenchrus echinatus; [7]): 14%
- % control at 14 DAA Actual (Cenchrus echinatus; [5]): 14.3%
- % control at 14 DAA Actual (Cenchrus echinatus; [6]): 23.3%
- % control at 14 DAA Actual (Cenchrus echinatus; [7]): 30%
- % control at 21 DAA Actual (Cenchrus echinatus; [5]): 10.7%
- % control at 21 DAA Actual (Cenchrus echinatus; [6]): 12.3%
- % control at 21 DAA Actual (Cenchrus echinatus; [7]): 22.7%
- desiccation in soybean at 3 DAA Actual (soybean [1]): 84.3%
- desiccation in soybean at 14 DAA Actual (soybean [1]): 60%
- desiccation in soybean at 1 DAA Actual (soybean [2]): 30%
- desiccation in soybean at 4 DAA Actual (soybean [2]): 56.7%
- desiccation in soybean at 7 DAA Actual (soybean [2]): 58.3%
- % control at 3 DAA Actual (Euphorbia heterophylla; [5]): 31.7%
- % control at 3 DAA Actual (Euphorbia heterophylla; [6]): 33.3%
- % control at 3 DAA Actual (Euphorbia heterophylla; [7]): 40%
- % control at 14 DAA Actual (Euphorbia heterophylla; [5]): 40%
- % control at 14 DAA Actual (Euphorbia heterophylla; [6]): 35%
- % control at 14 DAA Actual (Euphorbia heterophylla; [7]): 33.3%
- % control at 28 DAA Actual (Euphorbia heterophylla; [5]): 23.3%
- % control at 28 DAA Actual (Euphorbia heterophylla; [6]): 16.7%
- % control at 28 DAA Actual (Euphorbia heterophylla; [7]): 11.7%
- Defoliation in Triticum aesti at 3 DAA Actual (Triticum aesti): 68%
- % control at 3 DAA Actual (Conyza Canadenesis; [8]): 50%
- % control at 3 DAA Actual (Conyza Canadenesis; [9]): 55%
- % control at 3 DAA Actual (Conyza Canadenesis; [10]): 40%
- % control at 14 DAA Actual (Conyza Canadenesis; [8]): 51.7%
- % control at 14 DAA Actual (Conyza Canadenesis; [9]): 47.7%
- % control at 14 DAA Actual (Conyza Canadenesis; [10]): 33.3%
- % control at 28 DAA Actual (Conyza Canadenesis; [8]): 30%
- % control at 28 DAA Actual (Conyza Canadenesis; [9]): 35%
- % control at 28 DAA Actual (Conyza Canadenesis; [10]): 11.7%
- desiccation in soybean at 1 DAA Actual (soybean [3]): 21.7%
- desiccation in soybean at 4 DAA Actual (soybean [3]): 53.3%
- desiccation in soybean at 1 DAA Actual (soybean [4]): 21.7%
- desiccation in soybean at 4 DAA Actual (soybean [4]): 53.3%

Compound: O=C(O)c1cc(Oc2ccc(C(F)(F)F)cc2Cl)ccc1[N+](=O)[O-] [Aciflurofen, acifluorfen]
- % control at 3 DAA Actual (Digitaria insularis; [5]): 7.7%
- % control at 3 DAA Actual (Digitaria insularis; [6]): 28.3%
- % control at 3 DAA Actual (Digitaria insularis; [7]): 31.7%
- % control at 14 DAA Actual (Digitaria insularis; [5]): 38.3%
- % control at 14 DAA Actual (Digitaria insularis; [6]): 78.3%
- % control at 14 DAA Actual (Digitaria insularis; [7]): 87%
- % control at 28 DAA Actual (Digitaria insularis; [5]): 81.7%
- % control at 28 DAA Actual (Digitaria insularis; [6]): 98.7%
- % control at 28 DAA Actual (Digitaria insularis; [7]): 95.3%
- % control at 3 DAA Actual (Cenchrus echinatus; [5]): 13%
- % control at 3 DAA Actual (Cenchrus echinatus; [6]): 17.7%
- % control at 3 DAA Actual (Cenchrus echinatus; [7]): 18.3%
- % control at 14 DAA Actual (Cenchrus echinatus; [5]): 30%
- % control at 14 DAA Actual (Cenchrus echinatus; [6]): 50%
- % control at 14 DAA Actual (Cenchrus echinatus; [7]): 50%
- % control at 21 DAA Actual (Cenchrus echinatus; [5]): 50%
- % control at 21 DAA Actual (Cenchrus echinatus; [6]): 74.3%
- % control at 21 DAA Actual (Cenchrus echinatus; [7]): 61.7%
- desiccation in soybean at 3 DAA Actual (soybean [1]): 91.0%
- desiccation in soybean at 14 DAA Actual (soybean [1]): 10%
- % control at 3 DAA Actual (Euphorbia heterophylla; [5]): 45%
- % control at 3 DAA Actual (Euphorbia heterophylla; [6]): 56.7%
- % control at 3 DAA Actual (Euphorbia heterophylla; [7]): 63.3%
- % control at 14 DAA Actual (Euphorbia heterophylla; [5]): 28.3%
- % control at 14 DAA Actual (Euphorbia heterophylla; [6]): 35.0%
- % control at 14 DAA Actual (Euphorbia heterophylla; [7]): 50%
- % control at 28 DAA Actual (Euphorbia heterophylla; [5]): 13.3%
- % control at 28 DAA Actual (Euphorbia heterophylla; [6]): 31.7%
- % control at 28 DAA Actual (Euphorbia heterophylla; [7]): 33.3%
- desiccation in soybean at 1 DAA Actual (soybean [4]): 0%
- desiccation in soybean at 4 DAA Actual (soybean [4]): 11.7%

Compound: CP(=O)(O)CCC(N)C(=O)O (centres unmarked) [Glufosinate ammonium, glufosinate-ammonium]
- desiccation in soybean at 1 DAA Actual (soybean [2]): 0%
- desiccation in soybean at 4 DAA Actual (soybean [2]): 30%
- desiccation in soybean at 7 DAA Actual (soybean [2]): 63.3%
- Defoliation in Triticum aesti at 3 DAA Actual (Triticum aesti): 78%
- % control at 3 DAA Actual (Conyza Canadenesis; [8]): 13.3%
- % control at 3 DAA Actual (Conyza Canadenesis; [9]): 13.3%
- % control at 3 DAA Actual (Conyza Canadenesis; [10]): 63.3%
- % control at 14 DAA Actual (Conyza Canadenesis; [8]): 61.7%
- % control at 14 DAA Actual (Conyza Canadenesis; [9]): 90.7%
- % control at 14 DAA Actual (Conyza Canadenesis; [10]): 50%
- % control at 28 DAA Actual (Conyza Canadenesis; [8]): 58.3%
- % control at 28 DAA Actual (Conyza Canadenesis; [9]): 95%
- % control at 28 DAA Actual (Conyza Canadenesis; [10]): 33.3%
- desiccation in soybean at 1 DAA Actual (soybean [3]): 0%
- desiccation in soybean at 4 DAA Actual (soybean [3]): 18.3%
